For data set [1], the target named is T1, GST tagged Bcl w delta C29 protein (Homo sapiens, UniProt Q92843).
T1 sequence (Q92843 1-164 limits assumed): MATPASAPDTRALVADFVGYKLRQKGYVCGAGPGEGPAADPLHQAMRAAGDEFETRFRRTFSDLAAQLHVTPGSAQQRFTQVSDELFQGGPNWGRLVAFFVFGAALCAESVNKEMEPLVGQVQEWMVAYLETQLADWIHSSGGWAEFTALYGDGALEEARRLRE
The data set can be described thus: Alphascreen competition with Bim26mer, GST detection system. The class given is binding. To be noted: competition with biotinylated Bim-BH3 peptide; 12-mers, Example 7; read-out: IC50 (nM) Bcl-w ΔC29. Background: Bead proximity is the source of the signal in Alpha formats.

Data set [2] addresses Bcl-2 ΔC22 (Homo sapiens, UniProt P10415). As to the kind of experiment: Competition assay using biotinylated Bim-BH3 peptide, Bcl-2 ΔC22. The class given is binding. From the text:
The results are shown below:

Data set [3] is described as follows: Circular dichroism, alpha-helical content of peptides. The class given is physicochemical. To be noted: 30% aqueous trifluoroethanol. The procedure: Circular dichroism spectra were obtained using a Jasco Model J-710 spetropolarimeter at 20° C. using the following parameters: path length, 2 mm; step resolution, 0.1 nm; speed, 20 nm/min; accumulation, 4; response, 1 second; bandwidth, 1.0 nm. The peptides were analysed at a concentration of 0.5 mg/mL in 30% aqueous TFE. The alpha-helical content of the peptides were determined by methods described in Yang et al (1986), involving comparisons of spectra with model helical peptides.

The target of data set [4] is T2, 6-His tagged Bcl w delta C10 protein (Homo sapiens, UniProt Q92843).
T2 sequence (Q92843 1-183 limits assumed): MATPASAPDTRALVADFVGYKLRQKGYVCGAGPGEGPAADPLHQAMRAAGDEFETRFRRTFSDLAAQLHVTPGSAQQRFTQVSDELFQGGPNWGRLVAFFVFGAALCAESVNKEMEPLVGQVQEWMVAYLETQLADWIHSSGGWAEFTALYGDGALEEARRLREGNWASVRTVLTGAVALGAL
The data set can be described thus: Alphascreen competition with Bim26mer, Hexa-His detection system. The class given is binding. The following applies: competition with biotinylated Bim-BH3 peptide; read-out: IC50 (nM) Bcl-w ΔC10. An excerpt: Alphascreen (Amplified Luminsecent Proximity Homogenous Assay) is a bead based technology which measures a biological interaction between molecules. The assay consists of two hydrogel coated beads which, when bought into close proximity by a binding interaction, allow a transfer of singlet oxygen from a donor bead to an acceptor bead.
Upon binding a photosensitiser in the donor bead converts ambient oxygen to a more excited singlet state. This singlet oxygen then diffuses across to react with a chemiluminescer in the acceptor bead. Fluorophores within the same bead are activated, resulting in the emission of light.
Screening of the conformationally constrained peptides was performed using the Hexa-His detection system. Non biotinylated peptides dissolved in DMSO were titrated into the assay which consisted of 6-His tagged Bcl w delta C10 protein (24 nM Final concentration) and Biotinylated Bim BH3-26 peptide, Biotin-[…] [SEQ ID NO: 40] (1.5 nM Final concentration). To this reaction mix 6His tagged (Nickel Chelate) acceptor beads and Streptavidin coated donor beads, both at 10 ug/ml Final concentration, were added.
Assay buffer contained 50 mM Hepes pH 7.4, 10 mM DTT, 100 mM NaCl, 0.05% Tween and 1 mg/ml BSA. Bead dilution buffer contained 50 mM Tris, pH 7.5, 0.01% Tween and 1 mg/ml BSA. The final DMSO concentration in the assay was 1%. Assays were performed in 384 well white Optiplates and analysed on the Perkin Elmer Fusion plate reader (Ex680, Em520-620 […]).

Data set [5] addresses GST tagged Bcl w delta C29 protein (UniProt Q92843). The data set can be described thus: AlphaScreen competition, GST detection; competitor biotinylated Bim BH3-26 peptide.

*1 amine or outer side, *2 acyl side, *3 side chain or, on linkers, in order; H or OH if unused. Where a SMILES comes first, the peptide text is derived from it. Bridges are numbered along the chain shown (N, C = ends). Hexamethylenediamine = C(CCCN[*:2])CCN[*:1]

One may read the IC50 as the concentration that inhibits the measured activity by half. Take `CC[C@H](C)[C@H](NC(C)=O)C(=O)N[C@@H](C)C(=O)N[C@@H](CCC(N)=O)C(=O)N[C@H]1CCC(=O)NCCCCCCNC(=O)CC[C@@H](C(=O)N[C@@H](Cc2ccccc2)C(N)=O)NC(=O)[C@H](CC(=O)O)NC(=O)CNC(=O)[C@H]([C@@H](C)CC)NC(=O)[C@H](CCCNC(=N)N)NC(=O)[C@H](CCCNC(=N)N)NC(=O)[C@H](CC(C)C)NC1=O` [C, Ac-IAQ-E-LRRIGD-E-F-NH2] (Ac-IAQELRRIGDEF-NH2; linker 4-11 via Hexamethylenediamine): the results for the IC50 in data set [1], in data set [2] (competition with biotinylated Bim-BH3 peptide) and in data set [4] were 120 nM, 2600 nM and 230 nM, respectively. For the same molecule, the “affinity for Bcl-2 and Bcl-xL over the unconstrained 12-mer, in words” value in data set [2] (compared to the unconstrained 12-mer) was “outstanding increases in affinity”. Also, the “% Helicity” value in data set [3] is listed as 39%.

For the molecule Ac-IWIAQELRRIGDEFNA-NH2 (linker 6-13 via ‑NHCH2C(═O)(CH2)2NH2‑), the IC50 in data set [5] was found to be 0.3 nM.

Values taken from US20070032417A1, “Peptides and therapeutic uses thereof” (priority 2002, published 2007).
